According to ChEMBL document CHEMBL1201862, “PubChem BioAssay data set” (2004):
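Method: 48-hour compound exposure of cells in 96-well plates, five concentrations, linear interpolation of endpoints. GI50 marks 50% less growth.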 The source made the active and inactive calls. Cut-off read from the data, not from the text of the source: active = GI50 up to about 1.1 µM and inactive = higher.

Key:
Assay in all cases: NCI-60 cell line screen, 48 h
[1] = system: NCI-H226
[2] = system: RXF 393
[3] = system: PC-3
[4] = system: Malme-3M
[5] = system: HT-29
[6] = system: COLO 205
[7] = system: MOLT-4
[8] = system: SF-268
[9] = system: UO-31
[10] = system: EKVX
[11] = system: U-251
[12] = system: HL-60
[13] = system: OVCAR-8
[14] = system: HCT-116
[15] = system: HCC 2998
[16] = system: SR

Measured: GI50

N#CC(C#N)=Cc1ccc2c(c1)OC(Cl)O2 (stereo not drawn)
inactive: [1] 20.2 µM | [2] 28.5 µM | [3] 23.2 µM | [4] 18.1 µM | [5] 23.8 µM | [6] 24.3 µM | [7] 29.8 µM | [8] 29.4 µM | [9] 16.9 µM | [10] 27.4 µM | [11] 23.2 µM | [12] 6.92 µM | [13] 31.6 µM | [14] 18.9 µM

C=CCc1ccccc1CC1(OCC)OC(=O)c2ccccc21 (stereo not drawn)
inactive: [1] > 100 µM | [2] > 100 µM | [3] 83 µM | [5] 45.2 µM | [6] 67.1 µM | [7] 48.8 µM | [8] > 100 µM | [9] > 100 µM | [10] > 100 µM | [15] > 100 µM | [11] > 100 µM | [13] > 100 µM | [14] 41.2 µM

Cc1ccc(C(=O)N/N=C(\N=N\c2ccccc2)c2ccc(N(C)C)cc2)cc1
inactive: [1] > 100 µM | [3] > 100 µM | [5] > 100 µM | [6] 57.3 µM | [7] > 100 µM | [8] 50.7 µM | [9] > 100 µM | [10] > 100 µM | [15] 90.8 µM | [16] 35.5 µM | [11] > 100 µM | [12] > 100 µM | [13] > 100 µM | [14] > 100 µM

CC(=O)N1C(C(=O)NNc2ccccc2)CSC1c1ccccc1 (stereo not drawn)
inactive: [1] > 100 µM | [3] 5.3 µM | [4] > 100 µM | [5] > 100 µM | [6] 64.9 µM | [7] 4 µM | [8] > 100 µM | [9] 70.8 µM | [10] > 100 µM | [15] 23 µM | [16] > 100 µM | [11] > 100 µM | [13] > 100 µM | [14] > 100 µM

COc1ccc(NC(=O)Oc2cc(C)c3ccc(=O)cc-3o2)c(OC)c1.COc1ccc(NC(=O)Oc2ccc3c(C)cc(=O)oc3c2)c(OC)c1
inactive: [1] > 100 µM | [2] > 100 µM | [3] > 100 µM | [4] > 100 µM | [5] > 100 µM | [6] > 100 µM | [7] > 100 µM | [8] > 100 µM | [9] > 100 µM | [10] > 100 µM | [15] 82.8 µM | [11] > 100 µM | [13] > 100 µM | [14] > 100 µM

S=C(Nc1ccc(/N=N/c2ccccc2)cc1)SCc1ccccc1
inactive: [1] 18.9 µM | [2] 19.6 µM | [3] 15 µM | [4] 11 µM | [5] 23.6 µM | [6] 23.1 µM | [7] 12.1 µM | [8] 17 µM | [9] 18.8 µM | [10] 24.8 µM | [11] 16.2 µM | [13] 7.35 µM | [14] 14.8 µM

NC(=S)NS(=O)(=O)c1ccc(F)cc1F
inactive: [1] > 100 µM | [2] > 100 µM | [3] > 100 µM | [4] > 100 µM | [5] > 100 µM | [6] > 100 µM | [7] > 100 µM | [8] > 100 µM | [10] > 100 µM | [15] > 100 µM | [11] > 100 µM | [12] > 100 µM | [13] > 100 µM | [14] > 100 µM

CC(C)(C)OC(=O)Nc1nnc(S(N)(=O)=O)s1
inactive: [1] > 100 µM | [2] > 100 µM | [4] > 100 µM | [5] > 100 µM | [6] > 100 µM | [7] > 100 µM | [8] > 100 µM | [9] > 100 µM | [10] > 100 µM | [15] > 100 µM | [16] > 100 µM | [11] > 100 µM | [12] > 100 µM | [13] > 100 µM | [14] > 100 µM

CN1C(=O)CC2CCC(=O)N2c2cccnc21 (stereo not drawn)
inactive: [1] > 100 µM | [4] > 100 µM | [5] > 100 µM | [6] > 100 µM | [8] > 100 µM | [9] > 100 µM | [10] > 100 µM | [15] > 100 µM | [16] > 100 µM | [11] > 100 µM | [12] > 100 µM | [13] > 100 µM | [14] > 100 µM

CC(=O)C1C(=O)C(=O)N(c2cccc([N+](=O)[O-])c2)C1=O (stereo not drawn)
inactive: [1] > 100 µM | [2] > 100 µM | [3] > 100 µM | [5] > 100 µM | [6] > 100 µM | [7] > 100 µM | [8] > 100 µM | [9] > 100 µM | [10] > 100 µM | [15] > 100 µM | [11] > 100 µM | [12] > 100 µM | [13] > 100 µM | [14] > 100 µM

O=c1c2cc(S(=O)(=O)Nc3ccccc3Cl)ccc2ncn1NS(=O)(=O)c1ccc(Br)cc1
inactive: [1] > 37.5 µM | [3] > 37.5 µM | [4] > 37.5 µM | [5] > 37.5 µM | [6] > 37.5 µM | [7] > 37.5 µM | [8] > 37.5 µM | [9] > 37.5 µM | [10] > 37.5 µM | [15] > 37.5 µM | [16] > 37.5 µM | [11] > 37.5 µM | [12] > 37.5 µM | [13] > 37.5 µM | [14] > 37.5 µM

COC(=O)CCCC(=O)NC1=C(Nc2ccc(OC)cc2)C(=O)c2ccccc2C1=O
inactive: [4] 3.4 µM | [6] 25.4 µM | [7] 24.8 µM | [8] 45.6 µM | [9] 46.2 µM | [10] 21.9 µM | [15] 20.6 µM | [16] 33.1 µM | [11] 31.4 µM | [12] 21.7 µM | [13] 31 µM | [14] 19.7 µM

Cc1nc(=O)[nH]c2s/c(=N/C3CCCCC3)n(C3CCCCC3)c(=O)c12
inactive: [1] > 100 µM | [3] > 100 µM | [4] > 100 µM | [5] > 100 µM | [6] > 100 µM | [7] > 100 µM | [9] > 100 µM | [10] > 100 µM | [15] > 100 µM | [11] > 100 µM | [12] > 100 µM | [13] > 100 µM | [14] > 100 µM

CC1(C)C2CCC1(C)C(N/C(=C(/C(Cl)=C(Cl)Cl)[N+](=O)[O-])n1nnc3ccccc31)C2 (stereo not drawn)
inactive: [1] 19.5 µM | [2] 19.2 µM | [3] 21.1 µM | [4] 19.3 µM | [5] 39 µM | [6] 18.5 µM | [8] 17.6 µM | [9] 21 µM | [10] 32.4 µM | [15] 40.6 µM | [11] 19.2 µM | [13] 29.1 µM | [14] 43 µM

COC(=O)C1=C(C(=O)NNc2ccccc2)N(c2cccnc2Cl)C(c2ccccc2)=CC1c1ccccc1 (stereo not drawn)
inactive: [1] > 100 µM | [3] 31.3 µM | [4] 27.8 µM | [5] 58.6 µM | [6] 66.7 µM | [7] 15.2 µM | [8] 88.1 µM | [10] > 100 µM | [15] 60.3 µM | [16] 24 µM | [11] 47.1 µM | [12] 37.2 µM | [13] > 100 µM | [14] 23.7 µM

O=C1c2ccccc2-c2oc(=O)c3ccccc3c21
inactive: [1] > 100 µM | [2] > 100 µM | [3] > 100 µM | [5] > 100 µM | [6] > 100 µM | [7] > 100 µM | [9] > 100 µM | [10] 24.8 µM | [11] > 100 µM | [12] > 100 µM | [13] > 100 µM | [14] > 100 µM

CCCCC1=C(C(=O)N2CCOCC2)C2(OCCO2)C1Cl (stereo not drawn)
inactive: [1] 35.8 µM | [2] 29.5 µM | [3] 35.6 µM | [4] 33.6 µM | [5] 24.4 µM | [6] 23.1 µM | [7] > 100 µM | [8] 40.8 µM | [9] 56.6 µM | [10] 47.1 µM | [11] 35.8 µM | [12] > 100 µM | [13] 45.9 µM | [14] 41.7 µM

C=CO/N=[N+](\[O-])N(CC)CC
inactive: [1] > 100 µM | [2] > 100 µM | [4] > 100 µM | [5] > 100 µM | [6] > 100 µM | [7] > 100 µM | [8] > 100 µM | [10] > 100 µM | [15] > 100 µM | [16] > 100 µM | [11] > 100 µM | [12] > 100 µM | [13] > 100 µM | [14] > 100 µM

CC[C@@H]1C[C@@H](O)[C@@H]2[C@H](O)[C@H](O)CN2C1
inactive: [1] > 100 µM | [3] > 100 µM | [4] > 100 µM | [5] > 100 µM | [6] > 100 µM | [7] > 100 µM | [8] > 100 µM | [9] > 100 µM | [10] > 100 µM | [15] > 100 µM | [11] > 100 µM | [12] > 100 µM | [13] > 100 µM | [14] > 100 µM

COC(=O)C1CCC(=O)N1CN(C(C)=O)c1ccccc1 (stereo not drawn)
inactive: [1] > 100 µM | [3] > 100 µM | [4] > 100 µM | [5] > 100 µM | [6] > 100 µM | [7] > 100 µM | [8] > 100 µM | [9] > 100 µM | [10] > 100 µM | [16] 3.39 µM | [11] > 100 µM | [12] > 100 µM | [13] > 100 µM | [14] > 100 µM
